Reference: ChEMBL document CHEMBL5131558, “Fluorescent PARP Inhibitors Applied To Intracranial Glioblastoma: Accumulation and Persistence In Vivo” (ACS Med Chem Lett, 2022)

How the values were obtained:
U-87 MG [1] = test: Cytotoxicity against human U87 cells assessed as reduction in cell viability incubated for 72 hrs by alamar blue assay; format: functional, cell-based, U-87MG ATCC
MDA-MB-231 [2] = test: Cytotoxicity against human MDA-MB-231 cells assessed as reduction in cell viability incubated for 72 hrs by alamar blue assay; format: functional, cell-based; conditions: MDA-MB-231, 72 h
U87 = test: Inhibition of PARP production in human U87 cells preincubated for 24 hrs followed by H2O2 addition and measured over 15 mins; format: cell-based; conditions: dose 0.1-10 µM, time 1455.0 min, DDE = dose-dependent effect
U-87 MG [3] = test: Cytotoxicity against human U87 cells assessed as reduction in cell viability incubated for 72 hrs in presence of rAOC-Rib by alamar blue assay; format: functional, cell-based, U-87MG ATCC
[4] = Half life of the compound; format: physicochemical
MDA-MB-231 [5] = test: Inhibition of PARP production in human MDA-MB-231 cells preincubated for 24 hrs followed by H2O2 addition and measured over 15 mins; format: cell-based; conditions: dose 0.001-10 µM, time 1455.0 min, DDE = dose-dependent effect
[6] = Drug uptake in liver of mouse xenografted with human U87 MG cells at 25 nmol, iv measured after 24 hrs by fluorescence imaging analysis; format: ADME, organism-based, U-87MG ATCC; conditions: in vivo
[7] = Drug uptake in tumor of mouse xenografted with human U87 MG cells assessed as increase in fluorescence signal at 25 nmol, iv measured after 24 hrs by […] imaging method; format: ADME, organism-based, Neoplasm, U-87MG ATCC; conditions: in vivo

Compound | IC50 (U-87 MG [1]) | IC50 (MDA-MB-231 [2]) | further results
CNCc1ccc(-c2[nH]c3cc(F)cc4c3c2CCNC4=O)cc1 [RUCAPARIB] | 20 µM | 39 µM | –
CN(Cc1ccc(-c2[nH]c3cc(F)cc4c3c2CCNC4=O)cc1)C(=O)CCCCCCCNC(=O)CCCCCN1/C(=C/C=C2\CCCC(/C=C/C3=[N+](CCCCCC(=O)O)c4ccccc4C3(C)C)=C2Cl)C(C)(C)c2ccccc21 | 12 µM | – | inhibition (U87): Dde
CC1(C)C(/C=C/C2=C(Cl)C(=C/C=C3/N(CCCCCC(=O)O)c4ccccc4C3(C)C)/CCC2)=[N+](CCCCCC(=O)O)c2ccccc21 | 27 µM | – | IC50 (U-87 MG [3]): 28 µM; half-life [4]: 30 min
CN(Cc1ccc(-c2[nH]c3cc(F)cc4c3c2CCNC4=O)cc1)C(=O)CCCCCN1/C(=C/C=C2\CCCC(/C=C/C3=[N+](CCCCCC(=O)O)c4ccccc4C3(C)C)=C2Cl)C(C)(C)c2ccccc21 | 15 µM | 13 µM | inhibition (MDA-MB-231 [5]): Dde; Drug uptake [6]: Active; Drug uptake [7]: Active
CN(CCCCCCCCN)Cc1ccc(-c2[nH]c3cc(F)cc4c3c2CCNC4=O)cc1 | 79 µM | – | –
